This is an account of results in ChEMBL document CHEMBL1142151, “Association of QnrB determinants and production of extended-spectrum beta-lactamases or plasmid-mediated AmpC beta-lactamases in clinical isolates of Klebsiella pneumoniae” (2007).

In brackets after ≈: the same amount, converted by molar mass.

Type in all cases: functional
The subject of test [1] is Escherichia coli. Briefly: Inhibitory activity against Escherichia coli 12-1502.
The test system of test [2] is Klebsiella pneumoniae. As to the kind of experiment: Inhibitory activity against Klebsiella pneumoniae 07-006.
Test [3] deals with Klebsiella pneumoniae. As to the kind of experiment: Inhibitory activity against Klebsiella pneumoniae 12-1183.
The test system of test [4] is Escherichia coli. Briefly: Inhibitory activity against azide-resistant Escherichia coli J53 T12-1502.
The subject of test [5] is Escherichia coli. As to the kind of experiment: Inhibitory activity against azide-resistant Escherichia coli J53 T12-1183.
The test system of test [6] is Escherichia coli. As to the kind of experiment: Inhibitory activity against azide-resistant Escherichia coli J53 T07-006.
Test [7] concerns Escherichia coli. As to the kind of experiment: Inhibitory activity against azide-resistant Escherichia coli J53.
In test [8] the test system is Escherichia coli. As to the kind of experiment: Inhibitory activity against azide-resistant Escherichia coli J53 T03-222.
The subject of test [9] is Klebsiella pneumoniae. As to the kind of experiment: Inhibitory activity against Klebsiella pneumoniae 03-222.
The test system of test [10] is Escherichia coli. Briefly: Inhibitory activity against azide-resistant Escherichia coli J53 T35.
Test [11] relates to Klebsiella pneumoniae. Briefly: Inhibitory activity against Klebsiella pneumoniae 35.

For orientation: MIC means the smallest concentration in the dilution series that meets the test's criterion for growth inhibition. As for `CO/N=C(\C(=O)N[C@@H]1C(=O)N2C(C(=O)O)=C(COC(C)=O)CS[C@H]12)c1csc(N)n1` [CEFOTAXIME], the MIC turned out to be 64 µg/mL (≈ 141 µM) in the test with Escherichia coli [1]; 64 µg/mL (≈ 141 µM) against Klebsiella pneumoniae [2]; 16 µg/mL (≈ 35.1 µM) with Klebsiella pneumoniae [3]; 64 µg/mL (≈ 141 µM) against Escherichia coli [4]; 4 µg/mL (≈ 8.78 µM) against Escherichia coli [5]; 16 µg/mL (≈ 35.1 µM) against Escherichia coli [6]. Moreover, the MIC against Escherichia coli [7] was under 0.25 µg/mL; against Escherichia coli [8], 2 µg/mL (≈ 4.39 µM); against Klebsiella pneumoniae [9] it was 4 µg/mL (≈ 8.78 µM); with Escherichia coli [10], 16 µg/mL (≈ 35.1 µM); in the test on Klebsiella pneumoniae [11], over 128 µg/mL.
For the molecule `CO[C@@]1(NC(=O)Cc2cccs2)C(=O)N2C(C(=O)O)=C(COC(N)=O)CS[C@@H]21` [CEFOXITIN], the MIC against Escherichia coli [1] is over 128 µg/mL; with Klebsiella pneumoniae [2] it was 16 µg/mL (≈ 37.4 µM); against Klebsiella pneumoniae [3], over 128 µg/mL; against Escherichia coli [4] it was over 128 µg/mL; in the test on Escherichia coli [5], 32 µg/mL (≈ 74.9 µM); against Escherichia coli [6], 4 µg/mL (≈ 9.36 µM). For the same molecule, the minimum inhibitory concentration (MIC) came to 4 µg/mL (≈ 9.36 µM) against Escherichia coli [7]; 4 µg/mL (≈ 9.36 µM) against Escherichia coli [8]; 16 µg/mL (≈ 37.4 µM) against Klebsiella pneumoniae [9]; 4 µg/mL (≈ 9.36 µM) against Escherichia coli [10]; 32 µg/mL (≈ 74.9 µM) in the test on Klebsiella pneumoniae [11].
As for `CC(C)(O/N=C(\C(=O)N[C@@H]1C(=O)N2C(C(=O)[O-])=C(C[n+]3ccccc3)CS[C@H]12)c1csc(N)n1)C(=O)O` [CEFTAZIDIME], the MIC amounted to 128 µg/mL (≈ 234 µM) in the test with Escherichia coli [1]; 128 µg/mL (≈ 234 µM) in the test on Klebsiella pneumoniae [2]; 128 µg/mL (≈ 234 µM) against Klebsiella pneumoniae [3]; 64 µg/mL (≈ 117 µM) in the test on Escherichia coli [4]; 128 µg/mL (≈ 234 µM) in the test on Escherichia coli [5]; 128 µg/mL (≈ 234 µM) in the test with Escherichia coli [6]. In addition, the MIC in the test on Escherichia coli [7] is 1 µg/mL (≈ 1.83 µM); against Escherichia coli [8] it was 64 µg/mL (≈ 117 µM); in the test on Klebsiella pneumoniae [9] it was 128 µg/mL (≈ 234 µM); against Escherichia coli [10], 128 µg/mL (≈ 234 µM); against Klebsiella pneumoniae [11], over 128 µg/mL.
Consider `O=C(O)c1cn(C2CC2)c2cc(N3CCNCC3)c(F)cc2c1=O` [CIPROFLOXACIN], for which the minimal inhibitory concentration (MIC) in the test on Klebsiella pneumoniae [2] was 16 µg/mL (≈ 48.3 µM); against Klebsiella pneumoniae [3], over 16 µg/mL; with Klebsiella pneumoniae [9], 16 µg/mL (≈ 48.3 µM); against Klebsiella pneumoniae [11] it was 16 µg/mL (≈ 48.3 µM).
With `C[C@H]1COc2c(N3CCN(C)CC3)c(F)cc3c(=O)c(C(=O)O)cn1c23.C[C@H]1COc2c(N3CCN(C)CC3)c(F)cc3c(=O)c(C(=O)O)cn1c23.O` [LEVOFLOXACIN], the MIC against Escherichia coli [1] was 0.25 µg/mL; with Klebsiella pneumoniae [2], 8 µg/mL; against Klebsiella pneumoniae [3], over 16 µg/mL; against Escherichia coli [4], 0.25 µg/mL; in the test on Escherichia coli [6], 0.25 µg/mL; against Escherichia coli [8], 0.25 µg/mL. Also, the figures for the MIC with Klebsiella pneumoniae [9], against Escherichia coli [10] and against Klebsiella pneumoniae [11] were 16 µg/mL, 0.25 µg/mL and 4 µg/mL, respectively.
Take `COc1c(N2C[C@@H]3CCCN[C@@H]3C2)c(F)cc2c(=O)c(C(=O)O)cn(C3CC3)c12` [MOXIFLOXACIN]: the minimal inhibitory concentration (MIC) in the test on Escherichia coli [1] is 0.5 µg/mL (≈ 1.25 µM); in the test with Klebsiella pneumoniae [2] it was 8 µg/mL (≈ 19.9 µM); in the test with Klebsiella pneumoniae [3], over 8 µg/mL; against Escherichia coli [4], 0.5 µg/mL (≈ 1.25 µM); with Escherichia coli [5], 1 µg/mL (≈ 2.49 µM); against Escherichia coli [6], 1 µg/mL (≈ 2.49 µM). The MIC in the test on Escherichia coli [8] was 0.5 µg/mL (≈ 1.25 µM); in the test with Klebsiella pneumoniae [9], 8 µg/mL (≈ 19.9 µM); against Escherichia coli [10], 0.5 µg/mL (≈ 1.25 µM); in the test on Klebsiella pneumoniae [11], over 8 µg/mL.
Turning to `CCn1cc(C(=O)O)c(=O)c2ccc(C)nc21` [NALIDIXIC ACID], the MIC was 16 µg/mL (≈ 68.9 µM) in the test with Escherichia coli [1]; over 64 µg/mL in the test with Klebsiella pneumoniae [2]; over 64 µg/mL in the test with Klebsiella pneumoniae [3]; 32 µg/mL (≈ 138 µM) with Escherichia coli [4]; 32 µg/mL (≈ 138 µM) in the test on Escherichia coli [5]; 32 µg/mL (≈ 138 µM) against Escherichia coli [6]. Further, the MIC in the test with Escherichia coli [7] was 8 µg/mL (≈ 34.4 µM); in the test with Escherichia coli [8], 32 µg/mL (≈ 138 µM); in the test on Klebsiella pneumoniae [9] it was over 64 µg/mL; with Escherichia coli [10] it was 32 µg/mL (≈ 138 µM); against Klebsiella pneumoniae [11], over 64 µg/mL.
